Test results reported in the NIST ThermoML archive (doi:10.1016/j.tca.2006.08.007).
± gives the expanded uncertainty stated by the source.

How the values were obtained:
[1] = 293.15 K; 101.33 kPa; Liquid; Vibrating tube method
[2] = refractive index (Na D-line) (dimensionless); conditions: 293.15 K; 101.33 kPa; Liquid; refractometer

## CCCCCCO [hexan-1-ol]
[1]
  mass density: 818.7 ± 0.3 kg/m3
[2]
  refractive index: 1.418 ± 0.0002

## CCCCCO [pentan-1-ol]
[1]
  mass density: 815.1 ± 0.5 kg/m3
[2]
  refractive index: 1.4098 ± 0.0003

## CC#N [acetonitrile]
[1]
  mass density: 782.5 ± 0.2 kg/m3
[2]
  refractive index: 1.3442 ± 0.0001
